This is an account of results in ChEMBL document CHEMBL1132736, “Identification of optimal anion spacing for anti-HIV activity in a series of cosalane tetracarboxylates” (Bioorg Med Chem Lett, 2000).

Common to all, as to details: Homo sapiens
In experiment [1] the test system is MT4. In words: Effective concentration of compound required to reduce the cytopathic effect of HIV-2ROD in MT-4 cells by 50%. It is filed as functional, cell-based. In general terms: Protection from cytopathic effect is a common read-out in antiviral testing.
For experiment [2], the system named is CEM-SS. Briefly: Concentration of compound required to reduce the cellular viability in uninfected CEM-SS cells by 50%. Type of experiment: functional.
For experiment [3], the system named is CEM-SS. Briefly: Effective concentration of compound required to reduce the cytopathic effect of HIV-1RF in CEM-SS cells by 50%. It is filed as functional, cell-based.
Experiment [4] concerns MT4. Briefly: Effective concentration of compound required to reduce the cytopathic effect of HIV-1 IIIB in MT-4 cells by 50%. Type of experiment: functional, cell-based.
For experiment [5], the system named is MT4. Briefly: Concentration of compound required to reduce the cellular viability in uninfected MT-4 cells by 50%. Type of experiment: functional.

SMILES strings stand for the structures.

By EC50 is commonly meant the concentration at which the effect is half-maximal. Lower therefore signals an effect from little substance. Usually CC50 stands for the concentration that lowers cell viability or growth by half. A low value points to greater toxicity to the cells. With `CC(C)CCCC(C)[C@H]1CC[C@H]2[C@@H]3CCC4C[C@@H](CCC=C(c5cc(Cl)c(OCc6ccc(-c7ccccc7C(=O)O)cc6)c(C(=O)O)c5)c5cc(Cl)c(OCc6ccc(-c7ccccc7C(=O)O)cc6)c(C(=O)O)c5)CC[C@]4(C)[C@H]3CC[C@]12C` (stereo not given in full), the EC50 was greater than 125 µM in experiment [1], 5.17 µM in experiment [3] and 12.1 µM in experiment [4]. Further, the CC50 in experiment [2] was greater than 200 µM; in experiment [5] it was greater than 125 µM.

With `CC(C)CCCC(C)[C@H]1CC[C@H]2[C@@H]3CCC4C[C@@H](CCC=C(c5cc(Cl)c(OCc6ccc(CC(=O)O)cc6)c(C(=O)O)c5)c5cc(Cl)c(OCc6ccc(CC(=O)O)cc6)c(C(=O)O)c5)CC[C@]4(C)[C@H]3CC[C@]12C` (stereo not given in full), the EC50 in experiment [1] was 124 µM; in experiment [3], 1.78 µM; in experiment [4], 4.4 µM. Also, the CC50 was 133 µM in experiment [2] and greater than 125 µM in experiment [5].

As for `CC(C)CCCC(C)[C@H]1CC[C@H]2[C@@H]3CCC4C[C@@H](CCC=C(c5cc(Cl)c(O)c(C(=O)O)c5)c5cc(Cl)c(O)c(C(=O)O)c5)CC[C@]4(C)[C@H]3CC[C@]12C` (stereo not given in full), the CC50 in experiment [2] and in experiment [5] was greater than 200 µM in each case.

Consider `CC(C)CCCC(C)[C@H]1CC[C@H]2[C@@H]3CCC4C[C@@H](CCC=C(c5cc(Cl)c(OCc6ccc(-c7cccc(C(=O)O)c7)cc6)c(C(=O)O)c5)c5cc(Cl)c(OCc6ccc(-c7cccc(C(=O)O)c7)cc6)c(C(=O)O)c5)CC[C@]4(C)[C@H]3CC[C@]12C` (stereo not given in full), for which the EC50 in experiment [1] is greater than 95 µM; in experiment [3] it was 6.11 µM; in experiment [4], 14.5 µM. Moreover, the CC50 in experiment [2] is greater than 200 µM; in experiment [5] it was 95 µM.

`CC(C)CCCC(C)[C@H]1CC[C@H]2[C@@H]3CCC4C[C@@H](CCC=C(c5cc(Cl)c(OCc6ccc(C(=O)O)cc6)c(C(=O)O)c5)c5cc(Cl)c(OCc6ccc(C(=O)O)cc6)c(C(=O)O)c5)CC[C@]4(C)[C@H]3CC[C@]12C` (stereo not given in full) displayed an EC50 in experiment [1] of 22 µM. The CC50 came out at 72 µM in experiment [2] and 88 µM in experiment [5].

On to `CC(C)CCCC(C)[C@H]1CC[C@H]2[C@@H]3CCC4C[C@@H](CCC=C(c5cc(Cl)c(OCc6cccc(C(=O)O)c6)c(C(=O)O)c5)c5cc(Cl)c(OCc6cccc(C(=O)O)c6)c(C(=O)O)c5)CC[C@]4(C)[C@H]3CC[C@]12C` (stereo not given in full), for which the CC50 in experiment [2] is greater than 316 µM; in experiment [5] it was 29 µM.

Consider `CC(C)CCCC(C)[C@H]1CC[C@H]2[C@@H]3CCC4C[C@@H](CCC=C(c5cc(Cl)c(OCc6ccc(-c7ccc(C(=O)O)cc7)cc6)c(C(=O)O)c5)c5cc(Cl)c(OCc6ccc(-c7ccc(C(=O)O)cc7)cc6)c(C(=O)O)c5)CC[C@]4(C)[C@H]3CC[C@]12C` (stereo not given in full), for which the EC50 in experiment [1] is greater than 80 µM; in experiment [3], greater than 100 µM; in experiment [4], greater than 80 µM. Besides, the values for the CC50 in experiment [2] and in experiment [5] were greater than 100 µM and 80 µM, respectively.

For the compound `CC(C)CCCC(C)[C@H]1CC[C@H]2[C@@H]3CCC4C[C@@H](CCC=C(c5cc(Cl)c(OCc6ccccc6C(=O)O)c(C(=O)O)c5)c5cc(Cl)c(OCc6ccccc6C(=O)O)c(C(=O)O)c5)CC[C@]4(C)[C@H]3CC[C@]12C` (stereo not given in full), the CC50 in experiment [2] was greater than 316 µM; in experiment [5], 37 µM. The EC50 in experiment [3] amounted to 39.8 µM.
